Assays:
[1] = Metabolic stability assay, hepatic S9 fraction incubation (rat); assay type: in vitro ADME; conditions: rat liver S9 fraction 2.0 mg/mL protein, 1.0 μM substrate, 1.0 mM NADPH, 37° C., 30 minutes
Procedure: (§1) In order to determine the metabolic stability of each of the tested compounds, the following assay conditions were used: 100 mM-phosphate buffer, 1.0 mM NADPH, 3.3 mM magnesium chloride, 2.0 mg/mL protein from Hepatic S9 Fraction and 1.0 μM of substrate.
(§2) The assay was performed on a 96-well conical shaped plate with a volume of 200 μL, after addition of methanol. For each species, a set of samples was prepared as shown below (volumes are in μL).
(§3) The plate was sealed and incubated in a Thermal Mixer at 37° C. for 30 minutes at 400 rpm. 100 μL of methanol was added to each well and the plate was mixed for several minutes and then covered with an aluminum seal. Finally, the plate was centrifuged at 1000 rpm for 10 minutes.
(§4) The assay was analyzed using liquid chromatography and positive ion electrospray mass spectrometry. The chromatography column used was Agilent Zorbax SB-C18 (3.0×150 mm, 5 μm) with a flow rate of 0.5 mL/min.
(§5) Calculations were performed to determine the percent remaining, which is calculated by dividing the Peak Area Ratio of the analyte measured in the active protein versus the Peak Area Ratio of the analyte measured in the inactivated protein sample. The Peak Area Ratio is defined as the peak area of the analyte divided by the peak area of the internal standard. Analyte is defined as the substrate of a specific measurable metabolite.

[2] = Metabolic stability assay, hepatic S9 fraction incubation (human); assay type: in vitro ADME; conditions: human liver S9 fraction 2.0 mg/mL protein, 1.0 μM substrate, 1.0 mM NADPH, 37° C., 30 minutes
Procedure: as §1, §2, §3, §4, §5

[3] = Bioavailability and prodrug conversion in male rats; assay type: in vivo; conditions: Crl:CD(SD)BR, rat, blood, fasted, oral 10 mg free base of active moiety per kg, IV 1 mg free base/kg, LC-MS/MS, read-out: BA (bioavailability of prodrug after oral adminstration)
Procedure: Healthy male rats [Crl:CD(SD)BR] were obtained from Charles River Breeding Laboratory (Canada). […] The animals weighed 250 to 320 g and were individually identified by labeling on each metabolism cage. The rats were housed in individual metabolism cages during dosing and sample collections. The animals were acclimated to a diet of Purina Rodent Chow #5002 (Ralston Purina, St. Louis, Mo.) for at least 5 days and were fasted for 15-20 hours prior to the administration of the compound. Food was available from 4 hours after dose administration and ad libitum throughout the remainder of the study.
Each animal received the prodrug orally at an equivalent dose of 10 mg of free base of active moiety per kg of body weight or active moiety orally at an equivalent dose of 10 mg equivalent free base per kg body weight. For intravenous (IV) study, the animals received 1 mg free base/kg body weight. Sufficient amount of the test article was dissolved in appropriate vehicle (See table below) such that the final concentration of dose solution was 2.0 mg free base/mL and 0.5 mg free base/mL for oral and IV doses, respectively. The dose volume was 5 mL/kg and 2 mL/kg for oral and IV doses, respectively
Blood samples were collected from the jugular vein at specified time intervals. Concentrations of test article and/or prodrug were analyzed using a LC-MS/MS procedure.
Model independent pharmacokinetic parameters (Cmax, Tmax, AUC, T1/2, CL, Vss) were obtained using Watson computer program. The bioavailability (BA) was calculated as follows: [formula]
The percentages of conversion of prodrug to active moiety was calculated using the following equation: [formula]
“AUC” represents area under the curve.

Row | SMILES | S9 Rat (percent remaining) [1] [%] | S9 Hum. (percent remaining) [2] [%] | bioavailability [3] [%]
1 | CC(C)Nc1ncc(-c2cc(N)cc(C(F)(F)F)c2)n(CC(=O)NCc2ccc(C(=N)NO)cc2)c1=O [Compound 1] | 11 | 2 | –
2 | CONC(=N)c1ccc(CNC(=O)Cn2c(-c3cc(N)cc(C(F)(F)F)c3)cnc(NC(C)C)c2=O)cc1 [Compound 4] | 0 | 0 | 17
3 | CC(C)Nc1ncc(-c2cc(N)cc(C(F)(F)F)c2)n(CC(=O)NCc2ccc(C3=NC(C)(C)ON3)cc2)c1=O [Compound 5] | 13 | 0.50 | 5
4 | CC(C)Nc1ncc(-c2cc(N)cc(C(F)(F)F)c2)n(CC(=O)NCc2ccc3c(N)noc3c2)c1=O [Compound 6] | – | – | 7
5 | CCOC(=O)O/N=C(\N)c1ccc(CNC(=O)Cn2c(-c3cc(N)cc(C(F)(F)F)c3)cnc(NC(C)C)c2=O)cc1 [Compound 7] | 54 | 5 | –
6 | CCONC(=N)c1ccc(CNC(=O)Cn2c(-c3cc(N)cc(C(F)(F)F)c3)cnc(NC(C)C)c2=O)cc1 [Compound 8] | 3 | 1 | 20
7 | CC(C)Nc1ncc(-c2cc(N)cc(C(F)(F)F)c2)n(CC(=O)NCc2ccc3c(N)nc(=O)oc3c2)c1=O [Compound 9] | 0 | 0 | 1
8 | CCCCOC(=O)O/N=C(\N)c1ccc(CNC(=O)Cn2c(-c3cc(N)cc(C(F)(F)F)c3)cnc(NC(C)C)c2=O)cc1 [Compound 11] | 44 | 40 | –
9 | COC(=O)c1cc(N)cc(-c2cnc(NC(C)C)c(=O)n2CC(=O)NCc2ccc(C(=N)NO)cc2)c1 [Compound 12] | – | – | 3
10 | CCNC(=O)O/N=C(\N)c1ccc(CNC(=O)Cn2c(-c3cc(N)cc(C(F)(F)F)c3)cnc(NC(C)C)c2=O)cc1 [Compound 14] | 1 | 1 | 1
11 | CC(C)Nc1ncc(-c2cc(N)cc(C(F)(F)F)c2)n(CC(=O)NCCc2c(F)c(F)c3c(N)noc3c2F)c1=O [Compound 15] | 25 | 39 | 4
12 | CC(C)COC(=O)O/N=C(\N)c1ccc(CNC(=O)Cn2c(-c3cc(N)cc(C(F)(F)F)c3)cnc(NC(C)C)c2=O)cc1 [Compound 16] | 0 | 0 | –
13 | CC(C)Nc1ncc(-c2cc(N)cc(NC(=O)C(C)C)c2)n(CC(=O)NCc2ccc(C(=N)NO)cc2)c1=O [Compound 18] | 36 | 5 | –
14 | CC(C)Nc1ncc(-c2cc(N)cc(C(F)(F)F)c2)n(CC(=O)NCc2ccc(/C(N)=N/OC(=O)OC(C)C)cc2)c1=O [Compound 20] | – | – | 2
15 | COc1ccc(OC(=O)O/N=C(\N)c2ccc(CNC(=O)Cn3c(-c4cc(N)cc(C(F)(F)F)c4)cnc(NC(C)C)c3=O)cc2)cc1 [Compound 24] | 1 | 1 | –
16 | CC(C)Nc1ncc(-c2cc(N)cc(C(F)(F)F)c2)n(CC(=O)NCc2ccc(C3=NOC(C)(c4ccccc4)N3)cc2)c1=O (stereo not shown) [Compound 25] | 13 | 3 | –
17 | CC(C)Nc1ncc(-c2cc(N)cc(C(F)(F)F)c2)n(CC(=O)NCc2ccc(C(=N)NOCc3ccccc3)cc2)c1=O [Compound 29] | 14 | 17 | –

Source: patent US20040082585A1, “Prodrugs of substituted polycyclic compounds useful for selective inhibition of the coagulation cascade” (Pharmacia Corporation, priority 2001, published 2004)
